Read-outs that look alike come from different tables or passages of the source. Marks after values point to notes of the source that are not given here.
Legend:
[1] = Calorimetric enthalpies of solution in water; type: physicochemical; conditions: 298.15 K; for ΔsH^0, standard enthalpy of solution: average of the ΔsH values
Text: No measurements could be carried out at higher concentrations since the dissolution rate of this compound in water was relatively slow. […] Since there were no systematic changes in the ΔsH values with changes in the concentration of solute, the standard ΔsH^0 value reported in Table 3 is the average value. In the dissolution of a solute in water or any other solvent, there are two processes involved, as described in Equation (5):ΔsH^0 = ΔclH^0 + ΔsolvH^0(5)
(§1) The reliability of the calorimeter was checked by carrying out the standard reaction based on the protonation of an aqueous solution of tris-(hydroxymethyl)aminomethane (THAM) with an aqueous solution of hydrochloric acid (0.1 mol dm^−3) at 298.15 K (Equation (11)). H2NC(CH2OH)3(aq) + H3O+ (aq) → H3N+C(CH2OH)3(aq) + H2O(aq)(11)
(§2) The system was then placed in a water bath until thermal equilibrium was attained, after which the ampoule was broken into the solvent and the process was monitored by the chart recorder. The observed heat was corrected for the heat of the breaking of the empty ampoule in the solvent. The standard enthalpy of the solution, ∆sH^0, was found from […].

[2] = Conductance measurements in DMF; type: physicochemical; conditions: 298.15 K
Procedure: Conductance measurements were performed using the Wayne Kerr Autobalance Universal Bridge, type B642, and the Wayne Kerr Model 7330 Automatic LCR Meter Conductivity Bridge at a frequency of 1 Hz. […] Conductance readings at 298.15 K were recorded after each addition.

[3] = Solvate formation test in a solvent-saturated atmosphere; type: physicochemical; conditions: water
Procedure: (§3) The mixtures were left in a thermostatic bath at 298.15 K until equilibrium was reached. Aliquots of the saturated solutions were removed and analyzed gravimetrically by taking a known volume of sample, evaporating the solvent and then weighing the solid in a dry atmosphere. The weighing process was repeated until a constant weight was obtained. The analytical determination was carried out in triplicate on the same equilibrium mixture. Solvate formation was tested by storing the compounds over water or DMF in a desiccator containing an atmosphere saturated with the appropriate solvent over a period of at least four days.

[4] = Solubility measurements (gravimetric analysis of saturated solutions) in water; type: physicochemical
Procedure: as §3

[5] = Transfer thermodynamic parameters from water to DMF; type: physicochemical; conditions: 298.15 K
Text: As mentioned earlier, ΔsH^0 is made by the contribution of the crystal lattice enthalpy and the solvation enthalpy. In order to remove the contribution of the crystal lattice process, it is a common practice to calculate the transfer thermodynamic parameters according to the following process: […]

[6] = Conductance measurements in water; type: physicochemical; conditions: water
Procedure: H^+ (aq) + A^− (aq) ⇌ HA (aq)(1)
The ion-pair formation constant for the process described by Equation (1) is expressed in terms of activities, a, as shown in Equation (2): (2) Kip=aHA/aH^+∗aA^−=HA∗γHA/H^+∗[A^−]∗γ±i^2
The conductivity cell constant was determined by the method of Jones and Bradshaw [39] as previously reported [24]. Conductance measurements were performed using the Wayne Kerr Autobalance Universal Bridge, type B642, and the Wayne Kerr Model 7330 Automatic LCR Meter Conductivity Bridge at a frequency of 1 Hz. […] Conductance readings at 298.15 K were recorded after each addition.

[7] = Gibbs free energy and entropies of solution in water, corrected for ion-pair formation; type: physicochemical; conditions: 298.15 K
Text: In Equation (2), concentrations are in mol dm^−3, and γ ± i^2 is the mean molar ionic coefficient calculated by the use of the Debye–Hückel equation, where γHA is the activity coefficient of the un-ionized species. In very dilute solutions, γHA may be considered equal to unity. As far as the standard Gibbs energy of the solution in the standard state of 1 mol dm^−3, ∆sG^0, is concerned, the application of Equation (3) requires knowledge of the ion-pair formation constant in solution. The availability of Kip and solubilities in water allows the calculation the ionic molar concentration, ci, and the molar concentration of ion pairs, cip, as previously shown. The data refer to the standard state (1 mol dm^−3). ΔsG^0= −RTln (ci^2 * γ±i^2)(3)
In Equation (6), aH^+ and aA^− represent the activities of the species H^+ and A^− in solution respectively. The activity of the solid is unity by convention. The activity, a, on the molar scale (mol dm^−3) is related to the ionic molar concentration, ci, by the mean molar ionic activity coefficient, γ ± i.
Thus:K^0sp = ci^2 ∗ γ ± i^2 (7)
The availability of Gibbs energy (Equation (3)) and enthalpy values allows the calculation of the entropy of solution, ΔsS. For this purpose, the following equation was used.

[8] = Calorimetric enthalpies of solution in DMF; type: physicochemical; conditions: 298.15 K
Text: All observed heats were corrected for the heat from breaking the empty ampoules in DMF (Q = −0.0518 J). Since there were no systematic changes in the ΔsH values with changes in the concentration of the solute, the reported standard ΔsH^0 values are the average values of the data reported in Table 5. This table also includes the standard deviations of the data.
as §1, §2

[9] = Interaction of acetylsalicylic acid with β-cyclodextrin in DMF (titration calorimetry); type: binding; conditions: nonionized guest, 298 K
Procedure: For deriving the thermodynamic parameters of the interaction of cyclodextrin and these pharmaceuticals in these solvents, the four-channel microcalorimeter was used.
The latter was added from a 2 cm^3 burette connected by a silicone tube to the reaction vessel after thermal equilibrium was reached. These experiments were carried out in duplicate. For each solvent, blank experiments were performed to account for the dilution effects resulting from the addition of the appropriate anion salt to the solvent placed in the calorimetric vessel.

[10] = water, cited from earlier work
[11] = design: method as in PMID 16509753; conditions: water, 298 K, cited from earlier work
[12] = water; cited from earlier work

**Q.** Which “ΔsH^0, standard enthalpy of solution” value ([1]; listed as Acetylsalicylic Acid) does the source give for `CC(=O)Oc1ccccc1C(=O)O` [acetylsalicylic acid, reference compound] here?
**A.** The value was “ΔsH^0 = 11.1 ± 0.6 kJ mol^−1”.

**Q.** What about the “ΔsH^0, standard enthalpy of solution” value ([1]; listed as Acetylsalicylic acid) of the same molecule?
**A.** Its value is 11.1 kJ/mol.

**Q.** What about the “ΔsH, enthalpy of solution” value ([1]; c = 2.40 × 10^−4 mol dm^−3) of the same molecule?
**A.** The value was 11.81 kJ/mol.

**Q.** What about the “ΔsH, enthalpy of solution” value ([1]; c = 3.51 × 10^−4 mol dm^−3) of the same molecule?
**A.** The value was 10.46 kJ/mol.

**Q.** And the “ΔsH, enthalpy of solution” value ([1]; c = 4.66 × 10^−4 mol dm^−3)?
**A.** The value was 10.2 kJ/mol.

**Q.** And the “ΔsH, enthalpy of solution” value ([1]; c = 5.13 × 10^−4 mol dm^−3)?
**A.** Its value is 11.07 kJ/mol.

**Q.** And the “ΔsH, enthalpy of solution” value ([1]; c = 5.26 × 10^−4 mol dm^−3)?
**A.** Its value is 11.24 kJ/mol.

**Q.** What about the “ΔsH, enthalpy of solution” value ([1]; c = 5.99 × 10^−4 mol dm^−3) of the same molecule?
**A.** Its value is 11.71 kJ/mol.

**Q.** And the “Speciation in solution from conductance” value [2]?
**A.** The value was “undissociated”.

**Q.** And the Solvate formation [3]?
**A.** The Solvate formation was “not detected”.

**Q.** And the “Solubility, S” value [4]?
**A.** Its value is “(2.20 ± 0.28) ∗ 10^−2 mol dm^−3”.

**Q.** What about the “ΔtH^0, enthalpy of transfer” value [5] of the same molecule?
**A.** The value was -3.3 kJ/mol.

**Q.** And the “Ka, dissociation constant” value ([6]; 298.15 K)?
**A.** The value was 1.75 × 10^−4.

**Q.** What about the “Kip, ion-pair formation constant” value ([6]; 298.15 K) of the same molecule?
**A.** The value was 57 × 10^2.

**Q.** And the “Λ^0m, molar conductance at infinite dilution” value ([6]; 298.15 K)?
**A.** Its value is 392 S cm^2 mol^−1.

**Q.** And the “Fraction hydrolyzed at the end of the conductance measurements” value ([6]; estimated from data of Pierre and Jencks [25])?
**A.** Its value is 5%.

**Q.** What about the “ΔsS^0, entropy of solution” value [7] of the same molecule?
**A.** The value was −67 J K^−1 mol^−1.

**Q.** And the pKsp ([7]; corrected for ion-pair formation)?
**A.** Its pKsp is 5.45.

**Q.** And the “ΔsG^0, standard Gibbs energy of solution” value ([7]; standard state 1 mol dm^−3)?
**A.** The value was 31.1 kJ/mol.

**Q.** And the “ΔsH^0, standard enthalpy of solution” value ([8]; average of the ΔsH values)?
**A.** Its value is 7.8 ± 0.2 kJ/mol.

**Q.** What about the “ΔsH, enthalpy of solution” value ([8]; c = 1.10 × 10^−3 mol dm^−3) of the same molecule?
**A.** Its value is 7.50 kJ/mol.

**Q.** What about the “ΔsH, enthalpy of solution” value ([8]; c = 1.48 × 10^−3 mol dm^−3) of the same molecule?
**A.** The value was 7.54 kJ/mol.

**Q.** What about the “ΔsH, enthalpy of solution” value ([8]; c = 5.74 × 10^−4 mol dm^−3) of the same molecule?
**A.** Its value is 8.18 kJ/mol.

**Q.** And the “ΔsH, enthalpy of solution” value ([8]; c = 6.42 × 10^−4 mol dm^−3)?
**A.** The value was 7.83 kJ/mol.

**Q.** And the “ΔsH, enthalpy of solution” value ([8]; c = 8.62 × 10^−4 mol dm^−3)?
**A.** Its value is 7.69 kJ/mol.

**Q.** What about the “ΔsH, enthalpy of solution” value ([8]; c = 9.10 × 10^−4 mol dm^−3) of the same molecule?
**A.** Its value is 7.82 kJ/mol.

**Q.** What about the “log Kass” value [9] of the same molecule?
**A.** Its value is 4.66 ± 0.03 ^b.

**Q.** And the “Solubility (literature, molar scale)” value ([10]; 299.65 K)?
**A.** The value was 2.31 × 10^−2 mol dm^−3.

**Q.** What about the “Solubility (literature)” value [10] of the same molecule?
**A.** Its value is 1.78 × 10^−2 mol/dm^−3.

**Q.** And the “log Kass” value ([11]; pH 1.75, nonionized guest, calculated from Kass of ref 15)?
**A.** The value was 2.74 ^a.

**Q.** And the “log Ks” value ([11]; pH 6.00, ionized guest, calculated from Ks of ref 15)?
**A.** Its value is 1.71 ^a.

**Q.** And the “Apparent enthalpy of solution (literature, van ’t Hoff equation)” value [12]?
**A.** Its value is 22.9 kJ/mol.

From publication PMC9569790, “From Solution Studies of Pharmaceuticals (Aspirin and Related Compounds) to the Thermodynamics of Aspirin-β-Cyclodextrin Interaction in water and N,N-Dimethylformamide” (International Journal of Molecular Sciences, 2022)
